Results on 1 compound are retold here after patent US9677094B2, “Process of producing a fermentation product” (NOVOZYMES A/S, priority 2011, dated 2017).

Assay [1] has as its system glycation reactions and the formation of advanced glycation end products (AGEs). To be noted: cited from earlier work.
Assay [2] deals with initial stages of the Maillard reaction. To be noted: conjugates of beta-lactoglobulin with galactose and tagatose; cited from earlier work.
Assay [3] relates to advanced lipoxidation end-products on protein. To be noted: during lipid peroxidation reactions; cited from earlier work.
For assay [4], the system named is streptozotocin-induced diabetic and Zucker obese rats. The note with it: cited from earlier work.
Another assay deals with Fermentis Red Star yeast. The assay can be described thus: Ethanol yield in fermentation (SSF) of liquefied corn mash, HPLC. It counts as cell-based. To be noted: for EtOH: corn mash 32% DS. On the procedure: Pyridoxamine (Sigma #P9380) was evaluated for its ability to increase ethanol yields from laboratory-made corn mash when added at the time of liquefaction or at the beginning of fermentation.
Liquefied mashes were made using corn and backset obtained from a commercial ethanol plant in the Midwestern United States (Corn LP, Goldfield, Iowa). All mashes contained 32% Dry Solids (DS) and were liquefied at a pH of 5.8 for 120 minutes in a water bath at 85° C., using the alpha-amylase product Liquozyme SC DS (Novozymes) at a dose of 0.02% w/w of corn. Experimental mashes were treated with pyridoxamine at doses of 10 micrograms/g DS and 50 micrograms/g DS of pyridoxamine in 110 g mash. During liquefaction, the mashes were shaken vigorously every 2 minutes for the first 20 minutes and again at 30 minute intervals until the total liquefaction time equaled 2 hours. All mashes were then frozen overnight.
To each thawed mash, urea was added to a final concentration of 1000 ppm, and penicillin was added to a final concentration of 3 ppm. To test the effects of pyridoxamine in simultaneous saccharification and fermentation (SSF), separate aliquots of liquefied mash were dosed with 10 micrograms/g DS and 50 micrograms/g DS of pyridoxamine, respectively. The mashes were fermented as follows:
For fermentation, between 4 and 5 grams of each mash was added to 6 pre-weighed tubes per treatment. […] One hundred microliters of Fermentis Red Star yeast (5.5 g yeast in 100 mL tap water incubated at 32° C. for 30 minutes) was added to each tube, and the gluocoamylase product Spirizyme Ultra™ (Novozymes) was added to each tube to achieve a dose of 0.5 AGU/g DS.
After 24 hours, one replicate from each mash was sacrificed for HPLC analysis using 50 microliters of 40% v/v H2SO4. The tubes were centrifuged at 1500×g for 10 minutes, and the supernatants were filtered using Whatman syringe filters with 0.45 micron membranes, then diluted 1:5 for HPLC analysis. The remaining samples were sacrificed after 54 hours in the same manner but were subjected to HPLC analysis without dilution. Ethanol and oligosaccharide concentrations were measured by HPLC using an HPX-87H column (Bio-Rad) heated to 65° C. with a mobile phase of 5 mM sulfuric acid at a flow rate of 0.6 ml/min, with refractive index detection at 50° C.

For `Cc1ncc(CO)c(CN)c1O` [Pyridoxamine], in assay [1], the “inhibition of glycation reactions and AGE formation” value was “can inhibit”. Besides, in assay [2], the “effect on the initial stages of the Maillard reaction” value is “inhibitory effect”. Also, the “formation of advanced lipoxidation end-products on protein” value in assay [3] was “inhibits”. In addition, the development of nephropathy result in assay [4] (both animal models) was “protects against the development of nephropathy”. In addition, in assay [4] (streptozotocin-induced diabetic and Zucker obese rats), the lipid-lowering effect entry is recorded as “strong lipid-lowering effect”. Also, the “ethanol yield versus control” value with Fermentis Red Star yeast (addition at the beginning of SSF (after liquefaction)) is recorded as “did not result in an increase in ethanol yield”; with Fermentis Red Star yeast (addition at the start of corn mash liquefaction, three of the four results (both doses of 10 and one dose of 50 micrograms/g DS)), “statistically significant increase in ethanol yield”. The EtOH in the assay with Fermentis Red Star yeast (experiment 1, dose 10 micrograms/g DS, addition point Liq (liquefaction)) was found to be 12.19 w/v %; in the assay with Fermentis Red Star yeast (experiment 1, dose 10 micrograms/g DS, addition point SSF), 11.89 w/v %; in the assay with Fermentis Red Star yeast (experiment 1, dose 50 micrograms/g DS, addition point Liq (liquefaction)), 12.23 w/v %; with Fermentis Red Star yeast (experiment 1, dose 50 micrograms/g DS, addition point SSF), 11.79 w/v %; with Fermentis Red Star yeast (experiment 2, dose 10 micrograms/g DS, addition point Liq (liquefaction)), 12.01 w/v %; in the assay on Fermentis Red Star yeast (experiment 2, dose 10 micrograms/g DS, addition point SSF), 11.75 w/v %. The EtOH with Fermentis Red Star yeast (experiment 2, dose 50 micrograms/g DS, addition point Liq (liquefaction)) is 11.86 w/v %; in the assay on Fermentis Red Star yeast (experiment 2, dose 50 micrograms/g DS, addition point SSF) it was 11.75 w/v %.
